Article PMC13126685, “Targeting Highly Reactive Oxygen Species (hROS) for Prodrug Activation through a Cascade Reaction with Kinetic Tunability (CReKT) to Effect Linker Cleavage” (Journal of Medicinal Chemistry, 2026)
Where two headings read alike, the source gives them in different places.

Experiments:
[1] = Cyclization kinetics of model thioethers and sulfoxides by RP-HPLC; format: physicochemical; conditions: for cyclization, result in words: 200 μM in PBS/DMSO (98:2); for cyclization, result in words / half-life at 200 μM: 37 °C, pH 7.4; for half-life at 200 μM: PBS, pH 7.4, 200 μM in PBS/DMSO (98:2)
Procedure: The basic premise of this ROS-sensitive prodrug strategy relies on two properties: (1) the substantial rate enhancement of the cyclization/condensation reaction after oxidation and (2) the ability for ROS to oxidize a thioether to sulfoxide rapidly, which we have recently extensively studied. To examine the first aspect, we studied the rate of cyclization of the thioethers (3a–3g) and sulfoxides (4a–4g) using RP-HPLC (Figure and Figures S1–S5). Briefly, 200 μM thioether or sulfoxide was incubated in PBS (containing 2% DMSO) at 37 °C. Aliquots of the reaction solution were sampled at designated time points for examination of the reaction kinetic profiles. As representative examples, the cases of thioether-sulfoxide pairs 3 a /4a (EWG: −CN), 3 e /4e (EWG: −CONH2), and 3 f /4f (EWG: −CONHC3H7) are described (Figure ). […] As a subsequent step, we were interested in the ability to tune the reaction kinetics and the magnitude of the reaction rate separation between the thioether and sulfoxide analogs. We are especially interested in searching for systems that offer a high degree of separation in reaction kinetics before and after thioether oxidation.
First, 10 mM stock solutions of compound 3 or 4 were prepared in DMSO. […] The resultant solution was kept at 37 °C. […] Either gradient method A or B was used to monitor the reaction.

[2] = parameters: method as in number not shown in text; conditions: ref number not shown in text; cited from earlier work
[3] = Drug release / stability of drug conjugates in buffer in the absence of ROS (RP-HPLC); format: physicochemical; conditions: 100 μM, 37 °C
Procedure: Cellular compartments can have slightly different pH.
To monitor drug release in the absence of ROS, the same procedure of the model compound was followed with a small change of stock solution solvent. For drug conjugates 12, DMF was used to prepare the stock solution. Briefly, a 10 mM stock solution of the drug-conjugated compound was prepared in DMF. […] The resultant solution was kept at 37 °C.

[4] = system: RS4;11 cells; experiment: Cytotoxicity, CCK-8 assay; format: cell-based; conditions: Homo sapiens, RS4-11, 72 h
Procedure: To conduct this set of experiments, a 96-well plate (8 × 12) was used. First, RS4;11 cells were seeded in a 96-well plate 1 day before the experiment (RPMI-1640, containing 10% FBS and 1% PNS). Then, the cells were incubated with different concentrations of compounds with or without the stimulant. Specifically, the final concentrations of compounds were 0.1 pM–100 μM with or without H2O2 (25 μM) stimulation. The plate containing cells were incubated for 72 h at 37 °C with 5% CO2. The cell viability was tested using the CCK-8 assay. Specifically, after 72 h of incubation, 10 μL of the CCK-8 assay reagent was added to each well. Then, the plate was further incubated for 2 h. After that, the plate was gently shaken for 1 min, and then absorbance was recorded at 450 nm. The percentage cell viability was calculated using the following formula: cell viability (%) = ((A 450 of treated wells – A 450 of control wells)/(A 450 of no treatment wells – A 450 of control wells)) × 100. The experiment was conducted in triplicates.

[5] = system: RAW264.7 cells; experiment: Intracellular ROS detection using DCFH-DA fluorescent probe; format: cell-based; conditions: 10 μM DCFH-DA, PMA 2 μM or LPS 2 μg/mL, 4 h, λex 495 nm, λem 530 nm
Excerpt: To correlate the intracellular drug release, we also studied intracellular ROS formation upon stimulation with LPS or PMA or using RAW264.7 cells. We chose one of the widely used fluorescent probes, DCFH-DA, which is the diester version of DCFH capable of cellular penetration. − Subsequent hydrolysis of the ester groups would lead to DCFH, which is not readily cell membrane permeable and thus is trapped intracellularly. […] Similar to the intracellular payload release studies, we used RAW264.7 cells for intracellular ROS determination work. Briefly, 10 μM of DCFH-DA was incubated with and without LPS/PMA. Specifically, three groups were tested with the first being 10 μM of DCFH-DA only, the second being 10 μM of DCFH-DA and 2 μg/mL of LPS, and the third being 10 μM of DCFH-DA and 2 μM of PMA. The cells were incubated for 4 h before fluorescence measurements using a plate reader (λex 495 nm and λem 530 nm). […] Working solutions were prepared by dilution in DMEM (Fluorobright DMEM, containing 1% PNS). DCFH-DA (10 μM) was prepared by adding 4 μL of 10 mM DCFH-DA in 3.996 mL of media. DCFH-DA (10 μM) and LPS (2 μg/mL) were prepared by adding 4 μL of 10 mM DCFH-DA and 4 μL of 2 μg/μL of LPS in 3.994 mL of media. […] Subsequently, the plate was incubated 4 h before fluorescence measurements using a plate reader (λex 495 nm and λem 530 nm). […]

[6] = ROS-triggered drug release from drug conjugates after oxidation by NaOCl (RP-HPLC); conditions: 100 μM conjugate, 150 μM NaOCl, 37 °C, pH 7.4, 20 min
Procedure: Specifically, to study drug release after oxidation by NaOCl, 100 μM of Flox-CReKT 12a was incubated with 150 μM sodium hypochlorite (NaOCl) in PBS (containing 1% DMF) under near-physiological conditions (Figure ). The reaction progress was monitored by RP-HPLC, where 20 μL of the incubated mixture was sampled and analyzed at designated time points (Figure ). Drug release t 1/2 was calculated by plotting the peak area of Flox released against time (Figure a). […] Specifically, oxidation of Flox-CReKT conjugate 12a is designed to lead to sulfoxide analogue 13a, which undergoes cyclization to release the Flox with the formation of the cyclized byproduct (6a) (Figure ).
We used the same protocol as discussed in the previous section of ROS-sensitive drug release to study the effect of pH. […] Furthermore, we used either a citrate- or PBS-based buffer to test the effect of pH on the oxidation step.
To monitor the drug release in the presence of ROS, drug conjugate 12 was incubated with ROS under near-physiological conditions. First, a 10 mM stock solution of the drug conjugate was prepared in DMF. Then, 10 μL was taken from the stock solution and added to 975 μL of the buffer. Then, 15 μL of 10 mM ROS solution was added to the solution. The resultant solution was kept at 37 °C. At different time points, 20 μL was taken from the reaction mixture and injected into HPLC.

[7] = read-out: t 1/2 (thioether) (3a–g), cyclization (converted)
[8] = read-out: t 1/2 (sulfoxide) (4a–g), cyclization (converted)

With `COC(=O)c1ccccc1SCC(F)(F)F` [3b, Methyl 2-((2,2,2-Trifluoroethyl)thio)benzoate] the “cyclization, result in words” value [1] was “did not lead to cyclization” and the half-life at 200 μM [1, 7] was over 48 h.

For `COC(=O)CSc1ccccc1C(=O)OC` [3d, Methyl 2-((2-Methoxy-2-oxoethyl)thio)benzoate], the half-life at 200 μM [1, 7] was 6 h.

For `O=C(O)c1ccccc1C1c2cc(Cl)c(O)cc2Oc2cc(O)c(Cl)cc21` [DCFH], the “second-order rate constant of reaction with hypochlorite” value [2] is listed as 580 ± 18 M^–1 s^–1.

In the case of `CCCNC(=O)CSc1ccccc1C(=O)OC` [3f, Methyl 2-((2-Oxo-2-(propylamino)ethyl)thio)benzoate], the “cyclization, result in words” value [1] is reported as “no cyclization” and the “cyclization after 5 days, result in words” value ([1]; near-physiological conditions, 5 days) is reported as “no significant cyclization”.

In the case of `COC(=O)c1ccccc1[S+]([O-])CC(F)(F)F` (stereo not drawn) [4b, Methyl 2-((2,2,2-Trifluoroethyl)sulfiny)benzoate], the “cyclization, result in words” value [1] is reported as “did not lead to cyclization” and the half-life at 200 μM [1, 8] is reported as over 48 h.

With `CCCNC(=O)CSc1ccccc1C(=O)O[C@H]1C[C@H](n2cc(F)c(=O)[nH]c2=O)O[C@@H]1CO` [12f, (2R,3S,5R)-5-(5-Fluoro-2,4-dioxo-3,4-dihydropyrimidin-1(2H)-yl)-2-(hydroxymethyl)tetrahydrofuran-3-yl 2-((2-Oxo-2-(propylamino)ethyl)thio)benzoate] the “stability in the absence of ROS for up to 72 h” value ([3]; pH 7.4, 72 h) was “remained intact”, the IC50 ([4]; + 25 μM H2O2) was 202 ± 3 nM and the IC50 ([4]; without H2O2) was 197 ± 3 nM.

Work on `COC(=O)C[S+]([O-])c1ccccc1C(=O)OC` (stereo not drawn) [4d, Methyl 2-((2-Methoxy-2-oxoethyl)sulfinyl)benzoate] yielded a half-life at 200 μM [1, 8] of 0.667 h.

With `COC(=O)c1ccccc1[S+]([O-])CC(=O)O` (stereo not drawn) [4g, 2-((2-(Methoxycarbonyl)phenyl)sulfinyl)acetic Acid] the “cyclization, result in words” value [1] was “cyclization did not happen” and the half-life at 200 μM [1, 8] was over 48 h.

In the case of lipopolysaccharides [LPS], the “fluorescence intensity of DCFH-DA probe upon stimulation (intracellular ROS)” value [5] is reported as “marginal increase”.

Work on `COC(=O)c1ccccc1[S+]([O-])CC(=O)C(C)(C)C` (stereo not drawn) [4c, Methyl 2-((3,3-Dimethyl-2-oxobutyl)sulfinyl)benzoate] yielded a half-life at 200 μM [1, 8] of 1.5 h.

Work on `COC(=O)c1ccccc1SCC(=O)C(C)(C)C` [3c, Methyl 2-((3,3-Dimethyl-2-oxobutyl)thio)benzoate] yielded a half-life at 200 μM [1, 7] of 10 h.

Compound `CCCNC(=O)C[S+]([O-])c1ccccc1C(=O)OC` (stereo not drawn) [4f, Methyl 2-((2-Oxo-2-(propylamino)ethyl)sulfinyl)benzoate] has a half-life at 200 μM [1, 8] of 7.5 h.

In the case of `CCc1c2c(nc3ccc(OC(=O)c4ccccc4SCC(N)=O)cc13)-c1cc3c(c(=O)n1C2)COC(=O)[C@]3(O)CC` [14e, (S)-4,11-Diethyl-4-hydroxy-3,14-dioxo-3,4,12,14-tetrahydro-1H-pyrano[3′,4’:6,7]indolizino[1,2-b]quinolin-9-yl 2-((2-Amino-2-oxoethyl)thio)benzoate], the “SN-38 released within 24 h without oxidation” value ([3]; pH 7.4, 24 h) is reported as “about 25%”.

In the case of `COC(=O)c1ccccc1[S+]([O-])CC(N)=O` (stereo not drawn) [4e, Methyl 2-((2-Amino-2-oxoethyl)sulfinyl)benzoate], the half-life at 200 μM [1, 8] is reported as about 2.17 h.

Work on `COC(=O)c1ccccc1SCC#N` [3a, Methyl 2-((Cyanomethyl)thio)benzoate] yielded a half-life at 200 μM [1, 7] of 5 h.

For `COC(=O)c1ccccc1SCC(=O)O` [3g, 2-((2-(Methoxycarbonyl)phenyl)thio)acetic Acid], the “cyclization, result in words” value [1] was “cyclization did not happen” and the half-life at 200 μM [1, 7] was over 48 h.

With `COC(=O)c1ccccc1[S+]([O-])CC#N` (stereo not drawn) [4a, Methyl 2-((Cyanomethyl)sulfinyl)benzoate] the half-life at 200 μM [1, 8] was 0.667 h.

In the case of `N#CCSc1ccccc1C(=O)OC1CC(n2cc(F)c(=O)[nH]c2=O)OC1CO` [12a, (2S,3R,5S)-5-(5-Fluoro-2,4-dioxo-3,4-dihydropyrimidin-1(2H)-yl)-2-(hydroxymethyl)tetrahydrofuran-3-yl 2-((Cyanomethyl)thio)benzoate], the “Flox released at the 20 min time point” value [6] is reported as 90%.

`COC(=O)c1ccccc1SCC(N)=O` [3e, Methyl 2-((2-Amino-2-oxoethyl)thio)benzoate] showed a half-life at 200 μM [1, 7] of over 48 h.

In the case of `CCCCCCCCCCCCCC(=O)O[C@@H]1[C@@H](C)[C@@]2(O)[C@@H](C=C(CO)C[C@]3(O)C(=O)C(C)=C[C@@H]23)[C@@H]2C(C)(C)[C@]12OC(C)=O` [PMA, phorbol 12-myristate 13-acetate], the “fluorescence intensity of DCFH-DA probe upon stimulation (intracellular ROS)” value [5] is reported as “significantly higher fluorescence intensity”.
